Common to all, as to test: growth of human tumour cells (NCI), 48 h
The subject of test [1] is M14 melanoma.
The subject of test [2] is MOLT-4 leukemia.
For test [3], the system named is UO-31 renal.
Test [4] deals with CAKI-1 renal.
For test [5], the system named is NCI-H460 lung.
Test [6] deals with HS 578T breast.
The subject of test [7] is NCI-H226 lung.
Test [8] relates to A549 NSCLC.
Test [9] deals with SK-OV-3 ovarian.

Molecules are shown by their SMILES.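 Five compound concentrations were applied to cells in 96-well plates for 48 hours; endpoints were derived by simple linear interpolation of the resulting dose-response curve. TGI: concentration producing complete growth inhibition.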

For the molecule `CN(C)CCNC(=O)c1cccc2nc3c(C(=O)NCCN(C)C)cccc3nc12`, the TGI was 3.13 µM in test [1]; 14.7 µM in test [2]; 34.1 µM in [3]; over 100 µM in test [4]; 7.91 µM in test [5]; 7.73 µM in test [6]. Besides, the results for the TGI in test [7] and in test [8] were 5.66 µM and 6.01 µM, respectively.

`O=C(CN1CCCCC1)Nc1ccc2c(c1)C1Oc3ccccc3CC1CO2` (stereo not given): the TGI in test [1] was 32.3 µM; in [9] it was 81.9 µM; in [2], over 100 µM; in test [3], 72.7 µM; in [4], over 100 µM; in [7], 55.8 µM. The molecule further came in with a TGI in test [8] of over 100 µM.

As to `CCOC(=O)[C@@]1(C)CC(O)C(=O)N1C` (stereo not given in full), the TGI in test [1], in [9], in test [2], in test [3], in test [4] and in test [6] was over 100 µM in each case. In addition, the TGI in test [7] and in test [8] was over 100 µM each time.

Consider `Cc1ccc(-c2cc[n+]3c(n2)oc2ccccc23)cc1`, for which the TGI in test [1] is 84.5 µM; in [9], over 100 µM; in test [2], 31.3 µM; in test [3], over 100 µM; in test [4], over 100 µM; in test [5], over 100 µM. Besides, the TGI in test [6] was 81.5 µM; in test [8] it was over 100 µM.

Take `CN(CCCNC(=O)c1nn(C)c2c1Cc1ccccc1-2)CCCNC(=O)c1nn(C)c2c1Cc1ccccc1-2`: the TGI in test [1] turned out to be 14.5 µM; in [9], 34.1 µM; in test [2] it was 24.4 µM; in test [3], 5.58 µM; in test [4], 35.5 µM; in test [5], 37.6 µM. The TGI in test [6] worked out at 42.1 µM; in test [8] it was 33.3 µM.

As for `COC(=O)C(Cc1c[nH]c2ccccc12)NP(=O)(O)OCC1OC(n2cc(Br)c(=O)[nH]c2=O)CC1O` (stereo not given), the TGI in test [1], in [9], in test [2], in test [3], in test [5] and in [6] was over 100 µM each time. Further, the TGI in test [7] and in [8] was over 100 µM in each case.

On to `CN(C)CCOc1ccc(-c2c(Oc3ccccc3)c(=O)oc3ccccc23)cc1`, for which the TGI in [1] worked out at 4.63 µM; in test [2], 20.5 µM; in test [3] it was 19.9 µM; in test [4] it was 48.7 µM; in test [5], 29 µM; in test [6], 35.2 µM. Besides, the TGI in [7] was found to be 31.6 µM; in test [8], 15.3 µM.

With `C=CC(=O)N1C/C(=C\c2ccc([N+](=O)[O-])cc2)C(=O)/C(=C/c2ccc([N+](=O)[O-])cc2)C1`, the TGI in [1] stood at 0.41 µM; in [9], 2.85 µM; in test [3], 0.375 µM; in test [4] it was 0.801 µM; in [5], 1.21 µM; in [6] it was 0.804 µM. The TGI stood at 1.05 µM in test [7] and 1.72 µM in test [8].

For `CCC(CC)(CO)CNc1cc(Cl)nc(N)n1`, the TGI in test [9], in [2], in test [3], in test [4], in test [5] and in [6] was over 100 µM in each case. Further, the TGI in test [7] and in test [8] was over 100 µM in each case.

`COC(=O)CNC(=O)CCC(C)[C@H]1CCC2C3C(C[C@H](OC(C)=O)[C@@]21C)[C@@]1(C)CCC2(C[C@H]1C[C@H]3OC(C)=O)OOC1(CC[C@]3(C)C4C[C@H](OC(C)=O)[C@@]5(C)C(CC[C@@H]5C(C)CCC(=O)NCC(=O)OC)C4[C@H](OC(C)=O)C[C@@H]3C1)OO2` (stereo not given in full): the TGI in test [1] came out at 7.96 µM; in test [9], 13.9 µM; in [3], 1.51 µM; in test [4] it was 6.96 µM; in test [5], 26.4 µM; in test [6], 2.37 µM. The results for the TGI in test [7] and in [8] were 3.46 µM and 2.37 µM, respectively.

Consider `O=C(O)c1c2c(cc3c1CC1(Cc4cc5c(cc4C1=O)CCC5)C3)CCC2` (stereo not given), for which the TGI in test [1], in test [9], in [2], in [3], in [5] and in [6] was over 100 µM each time. Also, the TGI in test [7] and in test [8] was over 100 µM each time.

As to `CCCOP(=O)(OCCC)OC(C(F)(F)F)C(F)(F)F`, the TGI in test [1], in test [9], in [2], in test [3], in test [5] and in [6] was over 100 µM each time. The same molecule showed a TGI in test [7] of over 100 µM.

On to `COC(=O)C1CCC(=O)N1C(c1cc(OC)c(OC)c(OC)c1)c1cccc2ccccc12` (stereo not given), for which the TGI in test [1], in [9], in test [2], in test [3], in [5] and in test [6] was over 100 µM each time. The TGI in [7] and in [8] was over 100 µM each time.

As to `N#Cc1cc(Sc2ccc(N)c(C#N)c2)ccc1N`, the TGI in test [1] was 47.8 µM; in test [9] it was over 100 µM; in test [2], over 100 µM; in test [3], over 100 µM; in test [5], 31.1 µM; in test [6], 39.3 µM. Also, the TGI in test [7] was 81 µM; in test [8], over 100 µM.

As to `CCN(CC)CC1CN=C(N)O1` (stereo not given), the TGI in test [1], in test [2], in test [3], in test [4], in test [5] and in [7] was over 100 µM throughout. Besides, in test [8], the TGI was over 100 µM.

With `O=[N+]([O-])/C=C(\CS(=O)(=O)c1ccccc1)c1ccc2c(c1)OCO2`, the TGI in test [1] is 71.4 µM; in test [9] it was over 100 µM; in test [2], over 100 µM; in test [3], 98.7 µM; in test [4] it was 93.5 µM; in [6] it was over 100 µM. The TGI in [7] was 84.5 µM; in [8], over 100 µM.

In the case of `COC(=O)C1=C(O)CCCC(C2CCCCC(=O)C2C(=O)OC)=C1` (stereo not given), the TGI is over 100 µM in [1]; over 100 µM in test [9]; over 100 µM in test [2]; over 100 µM in test [3]; over 100 µM in test [4]; 39.6 µM in test [5]. For the same molecule, the TGI in test [7] and in [8] was over 100 µM each time.

Take `O=c1[nH]nc(Nc2ccccc2)c2nnn(C3CCCCC3)c12`: the TGI in test [1], in [2], in test [3], in test [4], in test [5] and in test [8] was over 100 µM in each case.

With `CC1SC2(CCCCC2)N(NC(=O)CSc2nc3ccc(Cl)cc3c(=O)n2-c2ccccc2)C1=O` (stereo not given), the TGI was 42.2 µM in test [1]; over 100 µM in test [9]; 47.2 µM in test [2]; 40.4 µM in [3]; over 100 µM in test [4]; 42.7 µM in test [5]. The same molecule returned a TGI in test [8] of over 100 µM.

In the case of `Cc1cc(Nc2ccc(NS(C)(=O)=O)cc2)c2c(ccc3nccc32)[nH]1`, the TGI in test [1] was 31.1 µM; in test [2], 11.8 µM; in [3], over 100 µM; in [4], 96.6 µM; in test [5], 46.5 µM; in test [6], over 100 µM. Moreover, the TGI in test [7] was 41.9 µM; in test [8], over 100 µM.

With `Cc1nc2c(cc1OCc1ccccc1)C(=O)C1=C(C2=O)C2OC(=O)CC2OC1(C)C` (stereo not given), the TGI in test [1] was 1.77 µM; in [2], 87.9 µM; in test [3], 3.24 µM; in [4], 1.67 µM; in [5], 2.9 µM; in test [6] it was 0.583 µM. In addition, the TGI in [7] was 2.98 µM; in [8] it was 21.2 µM.

`Cc1c(Cl)cccc1N=NC(=O)NNc1cccc(Cl)c1C`: the TGI in test [1] is 35.7 µM; in [2] it was 46.7 µM; in [3], 26.3 µM; in test [5], 31.2 µM; in test [7], 32.6 µM; in test [8], 45.2 µM.

For `O=C(OC1CN2CCC1CC2)N(c1ccccc1)c1ccccc1` (stereo not given), the TGI in test [1], in [9], in [2], in [3], in [4] and in test [6] was over 100 µM in each case. Moreover, the TGI in test [7] and in [8] was over 100 µM throughout.

For the molecule `C#C[C@@]1(O)CCCC2=CC3(CC[C@]21C)SCCS3`, the TGI in test [1], in test [9], in test [2], in [3], in test [5] and in [6] was over 100 µM each time. In addition, the TGI in [7] and in [8] was over 100 µM each time.

Turning to `O=C(O)/C(=C\c1ccc(O)cc1)c1cccc2ccccc12`, the TGI in test [1], in test [2], in test [3], in [4], in test [5] and in test [6] was over 100 µM in each case. In addition, the TGI in test [7] and in test [8] was over 100 µM in each case.

Take `Cn1c2ccccc2c2cc(N3CCCC3)c3c(c21)C(=O)N(c1ccccc1)C3=O`: the TGI in test [1], in test [9], in test [2], in [3], in test [5] and in test [6] was over 100 µM in each case. Besides, the TGI in test [7] and in test [8] was over 100 µM throughout.

On to `CCOC(=O)CCN1C(=O)C(=O)N(c2ccc(OC)cc2)C1=S`, for which the TGI in [9], in [2], in test [3], in test [4], in [5] and in test [6] was over 100 µM each time. Moreover, the TGI in test [7] and in test [8] was over 100 µM each time.

In the case of `O=C(c1cccs1)N1CCCN(C(=O)c2cccs2)C1=S`, the TGI in [1], in test [9], in test [2], in test [3], in [4] and in [6] was over 100 µM throughout. The molecule further yielded a TGI in [7] of over 100 µM.

For the molecule `O=C(N/N=C\c1cccc2ccccc12)Nc1cccc2ccccc12`, the TGI in test [1] was over 100 µM; in test [3], over 100 µM; in test [4], 83.4 µM; in test [5] it was over 100 µM; in test [6] it was over 100 µM; in test [7], over 100 µM. The molecule further registered a TGI in [8] of over 100 µM.

`O=c1[nH]c2nccn2c2c1SCCN2`: the TGI in test [1], in [2], in [4], in test [5], in test [6] and in [7] was over 100 µM in each case. In test [8], this molecule registered a TGI of over 100 µM.

In the case of `CC(C)C(=O)/C=C/S/C=C/C(=O)C(C)C`, the TGI in test [1] was 20.2 µM; in test [9], over 100 µM; in [3] it was 62.7 µM; in [4] it was 10.7 µM; in [5], over 100 µM; in [6], 95.7 µM. For the same molecule, the TGI in test [7] is 29.2 µM; in test [8], over 100 µM.

As to `COc1ccc2c(c1)NC1(CCN(CCCC(=O)c3ccc(F)cc3)CC1)N=N2`, the TGI in test [1] is 26.6 µM; in test [9] it was over 100 µM; in test [2], 41.4 µM; in test [3], 57.8 µM; in test [4], 90.6 µM; in [5] it was 93.5 µM. Also, the TGI was 95.6 µM in test [7] and over 100 µM in test [8].

Take `COC(=O)c1c2c(cc3c1CC1(Cc4cc5c(c(C(C)=O)c4C1)CCCC5)C3)CCCC2` (stereo not given): the TGI in test [1], in test [9], in test [6], in test [7] and in [8] was over 100 µM each time.

For the origin of these results see PubChem BioAssay (NCI).
